Experimental data published in US10174053B2, “2 substituted cephem compounds” (Glaxo Group Limited, priority 2012, dated 2019).
Converted amounts (≈) assume the structure as drawn.

What was measured:
Assay in all cases: In vitro antimicrobial activity, MIC by broth microdilution (CLSI)
Assay type in all cases: cell-based
[1] = test system: K. pneumoniae SR01358; settings: Klebsiella pneumoniae, SR01358; KPC-2, ESBL and KPC-type carbapenemase producing strain; 5×10^5 cfu/mL; cation-adjusted Iso-Sensitest broth containing human Apo-transferrin; read-out: Minimum Inhibitory Concentration (MIC) K. pneumoniae SR01358
Procedure: (§1) Compound (I) of the invention was evaluated for in vitro antimicrobial activity thereof.
(§2) Measurement of Minimum Inhibitory Concentration (MIC: μg/mL) was conducted according to CLSI (Clinical and Laboratory Standards Institute) method, and the amount of bacteria for inoculation was 5×10^5 cfu/mL, and cation-adjusted Iso-Sensitest broth containing human Apo-transferrin was used as a test medium, and the experiment was conducted using broth microdilution method. The bacteria used are listed below.

[2] = test system: A. baumannii JMI2346; settings: Acinetobacter baumannii, JMI2346; OXA-51, TEM, ESBL and OXA-type carbapenemase producing strain; 5×10^5 cfu/mL; cation-adjusted Iso-Sensitest broth containing human Apo-transferrin; read-out: Minimum Inhibitory Concentration (MIC) A. baumannii JMI:2346
Procedure: as §1, §2

[3] = test system: A. baumannii JMI7; settings: Acinetobacter baumannii, JMI7; PER-1, OXA-23, 51, ESBL and OXA-type carbapenemase producing strain; 5×10^5 cfu/mL; cation-adjusted Iso-Sensitest broth containing human Apo-transferrin; read-out: Minimum Inhibitory Concentration (MIC) A. baumannii JMI:7
Procedure: as §1, §2

[4] = test system: E. Coli JMI1890; settings: Escherichia coli; PER-1, TEM-1, ESBL producing strain; 5×10^5 cfu/mL; cation-adjusted Iso-Sensitest broth containing human Apo-transferrin; read-out: Minimum Inhibitory Concentration (MIC) E. Coli JMI:1890
Procedure: as §1, §2

| SMILES | MIC [1] [µg/mL] | MIC [2] [µg/mL] | MIC [3] [µg/mL] | MIC [4] [µg/mL] |
| --- | --- | --- | --- | --- |
| C[C@@H]1S[C@@H]2[C@H](NC(=O)/C(=N\OC(C)(C)C(=O)[O-])c3csc(N)n3)C(=O)N2C(C(=O)[O-])=C1C[N+]12CCC(CNN3C(=O)c4cc(O)c(O)c(Cl)c4C3=O)(CC1)CC2.[Na+] [Compound I-114] | ≤ 0.031 | 4 | 0.5 | 0.125 |
| C[C@@H]1S[C@@H]2[C@H](NC(=O)/C(=N\OC(C)(C)C(=O)[O-])c3csc(N)n3)C(=O)N2C(C(=O)O)=C1C[N+]1(CCN2C(=O)c3ccc(O)c(O)c3C2=O)CCCCC1 [Compound I-42] | 0.063 (≈ 0.0816 µM) | 2 (≈ 2.59 µM) | 0.5 (≈ 0.648 µM) | 0.5 (≈ 0.648 µM) |
| C[C@@H]1S[C@@H]2[C@H](NC(=O)/C(=N\OC(C)(C)C(=O)[O-])c3csc(N)n3)C(=O)N2C(C(=O)[O-])=C1C[N+]1(CCNC(=O)c2cc(O)c(O)c(Cl)c2)CCCC1.[Na+] [Compound I-61] | 0.063 | 16 | 2 | 2 |
| C[C@@H]1S[C@@H]2[C@H](NC(=O)/C(=N\OC(C)(C)C(=O)O)c3csc(N)n3)C(=O)N2C(C(=O)[O-])=C1C[N+]12CCC(Cn3cnc4cc(O)c(O)cc4c3=O)(CC1)C2 [Compound I-164, (4S,6R,7R)-7-((Z)-2-(2-aminothiazol-4-yl)-2-(((2-carboxypropan-2-yl)oxy)imino)acetamido)-3-((4-((6,7-dihydroxy-4-oxoquinazolin-3(4H)-yl)methyl)-1-azabicyclo[2.2.1]heptan-1-ium-1-yl)methyl)-4-methyl-8-oxo-5-thia-1-azabicyclo[4.2.0]oct-2-ene-2-carboxylate] | ≤ 0.031 | 2 (≈ 2.6 µM) | 0.5 (≈ 0.65 µM) | ≤ 0.031 |
| C[C@@H]1S[C@@H]2[C@H](NC(=O)/C(=N\OC(C)(C)C(=O)[O-])c3csc(N)n3)C(=O)N2C(C(=O)O)=C1C[N@+]12CCC[C@H]1CN(C(=O)c1ccc(O)c(O)c1Cl)CC2 [Compound I-41] | 0.063 (≈ 0.0809 µM) | 4 (≈ 5.14 µM) | 1 (≈ 1.28 µM) | 1 (≈ 1.28 µM) |
| C[C@@H]1S[C@@H]2[C@H](NC(=O)/C(=N\OC(C)(C)C(=O)O)c3csc(N)n3)C(=O)N2C(C(=O)[O-])=C1C[N+]12CCC(Cn3cnc4cc(O)c(O)c(Cl)c4c3=O)(CC1)C2 [Compound I-165, (4S,6R,7R)-7-((Z)-2-(2-aminothiazol-4-yl)-2-(((2-carboxypropan-2-yl)oxy)imino)acetamido)-3-((4-((5-chloro-6,7-dihydroxy-4-oxoquinazolin-3(4H)-yl)methyl)-1-azabicyclo[2.2.1]heptan-1-ium-1-yl)methyl)-4-methyl-8-oxo-5-thia-1-azabicyclo[4.2.0]oct-2-ene-2-carboxylate] | ≤ 0.031 | 1 (≈ 1.24 µM) | 0.5 (≈ 0.622 µM) | ≤ 0.031 |
| C[C@@H]1S[C@@H]2[C@H](NC(=O)/C(=N\OC(C)(C)C(=O)[O-])c3csc(N)n3)C(=O)N2C(C(=O)[O-])=C1C[N@+]1(C)[C@@H]2CC[C@H]1C[C@@H](NC(=O)C(=O)c1cc(O)c(O)c(Cl)c1)C2.[Na+] [Compound I-12] | ≤ 0.031 | 4 | 1 | 0.25 |
| C[C@@H]1S[C@@H]2[C@H](NC(=O)/C(=N\OC(C)(C)C(=O)[O-])c3csc(N)n3)C(=O)N2C(C(=O)[O-])=C1C[N+]12CCC[C@H]1CN(C(=O)C(=O)c1cc(O)c(O)c(F)c1)CC2.[Na+] (stereo partly shown) [Compound I-85] | 0.25 | 8 | 2 | 0.5 |
| C[C@@H]1S[C@@H]2[C@H](NC(=O)/C(=N\OC(C)(C)C(=O)[O-])c3csc(N)n3)C(=O)N2C(C(=O)[O-])=C1C[N+]12CCC(CNC(=O)C(=O)c3cc(O)c(O)c(Cl)c3)(CC1)CC2.[Na+] [Compound I-14] | ≤ 0.031 | 8 | 2 | 1 |
| C[C@@H]1S[C@@H]2[C@H](NC(=O)/C(=N\OC(C)(C)C(=O)[O-])c3csc(N)n3)C(=O)N2C(C(=O)[O-])=C1C[N@+]12CCC[C@H]1CN(C(=O)C(=O)c1cc(O)c(O)c(Cl)c1)CC2.[Na+] [Compound I-10] | ≤ 0.031 | 8 | 1 | 1 |
| C[C@@H]1S[C@@H]2[C@H](NC(=O)/C(=N\OC(C)(C)C(=O)[O-])c3csc(N)n3)C(=O)N2C(C(=O)[O-])=C1C[N+]12CCC(CNC(=O)c3cc(O)c(O)c(F)c3)(CC1)CC2.[Na+] [Compound I-72] | ≤ 0.031 | 4 | 1 | 0.125 |
| C[C@@H]1S[C@@H]2[C@H](NC(=O)/C(=N\O[C@@H](CC(=O)[O-])C(=O)[O-])c3csc(N)n3)C(=O)N2C(C(=O)[O-])=C1C[N@+]1(C)[C@@H]2CC[C@H]1C[C@@H](NC(=O)C(=O)c1cc(O)c(O)c(Cl)c1)C2.[Na+].[Na+] [Compound I-13] | 0.063 | 8 | 2 | 1 |
| C[C@@H]1S[C@@H]2[C@H](NC(=O)/C(=N\OC(C)(C)C(=O)[O-])c3csc(N)n3)C(=O)N2C(C(=O)[O-])=C1C[N+]1(C)C[C@H]2CN(C(=O)c3cc(O)c(O)c(F)c3)C[C@H]2C1.[Na+] (stereo partly shown) [Compound I-69] | ≤ 0.031 | 8 | 1 | 0.25 |
| C[C@@H]1S[C@@H]2[C@H](NC(=O)/C(=N\OC(C)(C)C(=O)[O-])c3csc(N)n3)C(=O)N2C(C(=O)[O-])=C1C[N+]12CCC(CNC(=O)C(=O)c3cc(O)c(O)c(F)c3)(CC1)CC2.[Na+] [Compound I-81] | ≤ 0.031 | 8 | 2 | 0.5 |
| C[C@@H]1S[C@@H]2[C@H](NC(=O)/C(=N\OC(C)(C)C(=O)O)c3csc(N)n3)C(=O)N2C(C(=O)[O-])=C1C[N+]12CCC(Cn3ncc4cc(O)c(O)cc4c3=O)(CC1)C2 [Compound I-126] | ≤ 0.031 | 0.5 (≈ 0.65 µM) | 0.25 (≈ 0.325 µM) | 0.063 (≈ 0.0819 µM) |
| C[C@@H]1S[C@@H]2[C@H](NC(=O)/C(=N\OC(C)(C)C(=O)[O-])c3csc(N)n3)C(=O)N2C(C(=O)O)=C1C[N+]1(CCNC(=O)c2cn(C3CC3)c3cc(O)c(O)c(Cl)c3c2=O)CCCC1 [Compound I-90] | ≤ 0.031 | 8 (≈ 9.16 µM) | 0.5 (≈ 0.572 µM) | 1 (≈ 1.14 µM) |
| C[C@@H]1S[C@@H]2[C@H](NC(=O)/C(=N\OC(C)(C)C(=O)[O-])c3csc(N)n3)C(=O)N2C(C(=O)O)=C1C[N+]12CCC(CN3C(=O)c4ccc(O)c(O)c4C3=O)(CC1)CC2 [Compound I-39] | 0.063 (≈ 0.0804 µM) | 1 (≈ 1.28 µM) | 0.125 (≈ 0.159 µM) | 0.25 (≈ 0.319 µM) |
| C[C@@H]1S[C@@H]2[C@H](NC(=O)/C(=N\O[C@@H](CC(=O)[O-])C(=O)[O-])c3csc(N)n3)C(=O)N2C(C(=O)[O-])=C1C[N+]12CCC(CNC(=O)C(=O)c3cc(O)c(O)c(Cl)c3)(CC1)CC2.[Na+].[Na+] [Compound I-15] | – | 16 | 4 | 1 |
| C[C@@H]1S[C@@H]2[C@H](NC(=O)/C(=N\OC(C)(C)C(=O)[O-])c3csc(N)n3)C(=O)N2C(C(=O)[O-])=C1C[N+]1(CCn2[nH]c(=O)c3cc(O)c(O)cc3c2=O)CCCC1.[Na+] [Compound I-4] | ≤ 0.031 | – | 1 | 2 |
| C[C@@H]1S[C@@H]2[C@H](NC(=O)/C(=N\OC(C)(C)C(=O)[O-])c3csc(N)n3)C(=O)N2C(C(=O)[O-])=C1C[N+]1(C)C[C@H]2CN(C(=O)c3cc(O)c(O)c(Cl)c3)C[C@H]2C1.[Na+] (stereo partly shown) [Compound I-63] | ≤ 0.031 | – | 1 | 1 |
| C[C@@H]1S[C@@H]2[C@H](NC(=O)/C(=N\OC(C)(C)C(=O)[O-])c3csc(N)n3)C(=O)N2C(C(=O)O)=C1C[N+]1(CCNC(=O)c2cc(=O)c(O)c[nH]2)CCCC1 [Compound I-130] | ≤ 0.031 | – | – | 8 (≈ 10.9 µM) |
| C[C@@H]1S[C@@H]2[C@H](NC(=O)/C(=N\OC(C)(C)C(=O)[O-])c3csc(N)n3)C(=O)N2C(C(=O)[O-])=C1C[N+]12CCC(CNC(=O)c3cc(=O)c(O)c[nH]3)(CC1)CC2.[Na+] [Compound I-140] | ≤ 0.031 | – | 4 | 0.5 |
